The values that follow come from publication PMC10916352, “Safety Evaluation of a Prototypical Diazirine-Based Covalent Crosslinker and Molecular Adhesive” (International Journal of Toxicology, 2023).

Values joined by “and” are separate entries in the source; they are usually repeats but may differ in a detail not shown here. Equal values may be shown once.

A short description of data set [1]: In vitro skin irritation test, MTT viability. Type of data set: cell-based, human. Conditions: human; 15 min exposure, 42 h post-incubation, relative to phosphate buffered saline; read-out: Cell Viability (%). The procedure:
(§1) Tests were performed in triplicate. […] Following exposure, samples were rinsed with phosphate buffered saline until no test item remain, dried carefully, and placed in a new 2 mL well with pre-warmed Maintenance Medium to incubate for 42 h. After incubation, cell culture inserts were dried carefully, transferred into a 12-well plate prefilled with 2 mL MTT in phosphate buffered saline (.3 mg/mL), and incubated for 3 h. Tissue samples were then dried, and a biopsy punch was taken. The epidermis was separated from the collagen matrix, and both were extracted with 500 μL isopropanol and stored for 70 h refrigerated. The amount of extracted formazan was measured in duplicate for each sample by the OD570.

Data set [2] concerns EPISKIN Small Model (human epidermis model). The data set is described as follows: In vitro skin irritation test, MTT viability. It counts as cell-based. The procedure:
as §1

Data set [3] deals with isolated bovine cornea. The data set is described as follows: Bovine Corneal Opacity and Permeability test (BCOP). The arrangement: key to Mean Opacity Change: mean of final − initial opacity; opacity = (I0/I − 0.9894)/0.0251. The procedure: The BCOP Assay was performed to evaluate the eye hazard potential of BondLynx, as measured by its ability to induce opacity and increase permeability in an isolated bovine cornea. The BCOP is an in vitro model that provides short-term maintenance of normal physiological and biological function of the bovine cornea in an isolated system so that eye damage can be assessed by quantitative measurements of changes in corneal opacity and permeability.[45],[46]
Tests were performed using bovine corneas isolated from the eyes of young cattle after slaughter and transported in biological saline under cooled conditions. […] BondLynx was ground with a mortar and pestle and applied directly to the corneas as a solid. Tests were performed in triplicate.
Bovine eyes were checked for unacceptable defects, such as opacity, scratches, pigmentation, and neovascularization upon receipt by removing them from the physiological saline and holding them in the light. Corneas were isolated from acceptable specimens and stored in a petri dish with cMEM (Eagle’s Minimum Essential Medium with 1% v/v L-glutamine and 1% v/v foetal bovine serum) at 32 ± 1°C. Isolated corneas were mounted in a corneal holder with the endothelial side against the O-ring of the posterior half of the holder and the anterior half of the holder tightened on top of the cornea with screws. The compartments of the corneal holder were filled with cMEM and the corneas were incubated for a minimum of 1 h at 32 ± 1°C. The initial corneal opacity was determined by replacing the medium in both compartments with fresh cMEM and using an opacitometer to measure the opacity against a cMEM filled chamber. Only corneas with an initial opacity <7 were used for testing.
A total of three samples were prepared for each test item by removing the medium from the anterior compartment of the holder and applying 750 μL of positive or negative control, or 306.6-333.6 mg of BondLynx. The corneal holders were positioned so that the test item uniformly covered the cornea within, and the entire assembly was incubated at 32 ± 1°C for 240 ± 10 min. The test item was then removed, and the epithelium was washed at least three times with MEM containing phenol red. Corneas were visually inspected for pH effects and dissimilar opacity patterns before refilling both compartments with fresh cMEM.
Corneal opacity was measured by the diminution of light (I = luminous flux per area) passing through the cornea. The opacity value was calculated according to the formula: Opacity=I0/I−0.9894/0.0251 where I0 is the empirically determined illuminance through a cornea holder with just windows and medium and I is the measured illuminance through a holder with a cornea. The change in opacity for each individual cornea was calculated by subtracting the initial opacity from the final post-treatment reading, and the corrected opacity was calculated by subtracting the average change in opacity of the negative control corneas (if > 0) from the change in opacity for corneas treated with BondLynx or positive control.
Following the final opacity measurement, permeability of the cornea to Na-fluorescein was evaluated by removing the medium from both corneal holder compartments, then refilling the posterior compartment with fresh cMEM and the anterior compartment with 1 mL of Na-fluorescein in cMEM (5 mg/mL). The corneal holders were positioned so that the test item uniformly covered the cornea within, and the entire assembly was incubated at 32 ± 1°C for 90 ± 5 min. The medium from the posterior compartment was then removed, and a 360 μL aliquot was placed in a 96-well plate to measure the OD490 in triplicate. Any sample with an OD490 that was 1.500 or higher was diluted to bring the OD490 into the acceptable range. The corrected OD490 was calculated by subtracting the average change in OD490 for the negative control (if > 0) from the change in OD490 of either BondLynx or positive control treated cornea.

Data set [4] can be described thus: In vitro skin corrosion test, MTT viability. Conditions: human, EpiDerm Skin Model (reconstructed human epidermis).
Description: (§2) The skin corrosion test was performed to assess the cytotoxic effects of BondLynx immediately following short-term exposure to the stratum corneum of the epidermis using an in vitro skin model.[32]–[34] Cytotoxicity to the skin model was expressed as the reduction of mitochondrial dehydrogenase activity measured by formazan production from 3-(4,5-dimethylthiazol-2-yl)-2,5-diphenyl tetrazolium bromide (MTT). […] BondLynx was checked for direct MTT reduction by incubating at least 50 mg of BondLynx with 1 mL MTT for 3 h to ensure that no blue/purple colour change or precipitate occurred. BondLynx was tested for colour interference by incubating at least 50 mg of BondLynx in water for 1 h and isopropanol for 2-3 h, centrifuging for 30 s at 16,000 g, and measuring the OD570 to ensure an optical density ≤.08 (after subtracting a Milli-Q water blank).
(§3) Incubations were performed at 37.0-37.3°C, in an atmosphere with 77%-95% humidity containing 5.0 ± .5% CO2 in air unless otherwise stated. The positive control was 8.0 N aqueous potassium hydroxide (KOH) solution, and the negative control was Milli-Q water. BondLynx was applied directly to the test system as a solid and spread to match the size of the tissue. Tests were performed in duplicate.
(§4) Skin tissue samples were refrigerated for 1 day upon receipt before placing in a six-well plate with .9 mL supplemented DMEM (just enough to reach the bottom of the tissue) 1 h before testing. A total of four samples were prepared per test item by applying 50 μL of the positive or negative control, or 25 μL of Milli-Q water (to moisten the tissue and ensure close contact) followed by 34.2-39.8 mg of BondLynx. Two samples of each test item were incubated for 3 min at room temperature, while the remaining samples were incubated for 1 h. After exposure, tissues were washed with phosphate buffered saline, dried carefully, and stored in 300 μL DMEM in a 24 well plate until the full six-well plate was dosed and rinsed.
(§5) Cell viability after incubation was determined by replacing the DMEM with 300 μL MTT in supplemented DMEM (1 mg/mL) and incubating for 3 h. Tissues were then washed with phosphate buffer saline, and formazan was extracted with 2 mL isopropanol overnight. The amount of extracted formazan was measured in triplicate for each sample by the OD570.
(§6) Optical density readings were corrected by subtracting the mean blank OD570. Cell viability was calculated as the percentage of the mean corrected OD570 for the test compound relative to the mean OD570 for the negative control (% Viability = ODtest/ODnegative control × 100%).
For data set [5], the system named is EpiDerm Skin Model (human-derived epidermal keratinocytes). The data set is described as follows: In vitro skin corrosion test, MTT viability. Conditions: for OD570 / OD570 corrected: tissues A and B, triplicate readings.
Description: as §2, §3, §4, §5, §6

As usually defined, the viability is a read-out of living cells in per cent, often relative to untreated cells. `FC(F)(F)C1(c2ccc(C(c3ccc(C4(C(F)(F)F)N=N4)cc3)(C(F)(F)F)C(F)(F)F)cc2)N=N1` [BondLynx, 2,2-bis-[4-[3-(trifluoromethyl)-3H-diazirin-3-yl]phenyl]hexafluoropropane]: the viability at 15 min in data set [1] is 106%. Moreover, in data set [2] (15 min exposure, 42 h post-incubation), the “Mean ± SD (OD570 corrected)” value is 1.019 ± .011. In addition, in data set [2] (15 min exposure, 42 h post-incubation, tissues A-C, duplicate readings), the OD570 was 1.0621 and 1.0517 and 1.0668 and 1.0420 and 1.0901 and 1.0602. Besides, the Skin irritation classification entry in data set [2] (viability >50%) is given as “non-irritant”. Further, the Opacity in data set [3] (240 min exposure, individual corneas) was 0.9 and 0.7. Also, the “Appearance of corneas after treatment” value in data set [3] (240 min of treatment) is given as “clear”. Besides, the “UN GHS eye damage classification” value in data set [3] (IVIS <3: No Category) is given as “does not require classification for eye damage or irritation”. The “pH effects in the rinsing medium” value in data set [3] (after 240 min exposure) is given as “No pH effects”. Moreover, the “Corrected Opacity Change” value in data set [3] (individual corneas) was 1.6 and 0.9 and 0.7. Further, the “Final Opacity” value in data set [3] (individual corneas, after 240 min treatment) is 1.9 and 0.9 and 2.5. Moreover, the “Initial Opacity” value in data set [3] (individual corneas, before treatment) is 0.3 and 0 and 1.8. In data set [3] (individual corneas, final minus initial), the “Opacity Change” value is 1.6 and 0.9 and 0.7. The IVIS in data set [3] (individual corneas, opacity + 15 × OD490) was 0.9 and 1.0. In data set [3] (three corneas), the “Mean IVIS ± SD” value is 1.2 ± 0.4 and the “Mean Opacity Change” value is 1.1. Besides, in data set [4], the viability at 3 min stood at 101% and the viability at 1 h was 95%. In data set [5] (3 min exposure), the “Mean ± SD (OD570 corrected)” value is 1.7 ± 0.1; the OD570 is 1.8819 and 1.869 and 1.8445 and 1.7365 and 1.7069 and 1.7026; the OD570 corrected was 1.837 and 1.8241 and 1.7996 and 1.6916 and 1.662 and 1.6577. For the same molecule, in data set [5] (1 h exposure), the “Mean ± SD (OD570 corrected)” value is on record as 1.85 ± .09; the OD570 is 1.9919 and 1.9396 and 1.9528 and 1.8727 and 1.8128 and 1.8033; the OD570 corrected was 1.947 and 1.8947 and 1.9079 and 1.8278 and 1.7679 and 1.7584. The Skin corrosion classification entry in data set [5] (viability >50% after 3 min and >15% after 1 h) is “not corrosive”.
